Assay results taken from US20100105768A1, “MOLD-INHIBITING METHOD AND COMPOSITION” (priority 2008, published 2010).

Experiments:
mold/stain fungi = assay: Dip treated fresh cut white pine blocks in sealed bags, visual mold and stain growth rating (Example 5); format: cell-based; conditions: 1% dip solution; for Visual evaluation Week 1 / Visual evaluation Week 2 / Visual evaluation Week 3 / Visual evaluation Week 4 / Visual evaluation Week 5 / Visual evaluation Week 6 / Visual evaluation Week 8: one minute, white pine blocks, no inoculation; for Efficacy against mold/stain fungi (in words): 8 weeks
Text: Fresh cut white pine blocks (7.6×6.35×3.8 cm^3) were dipped in the prepared test formulation for one minute. The individual dipped wood block was placed in a plastic sandwich bag and the plastic bag was sealed to retain the moisture of the test wood blocks. No mold or stain fungi were inoculated on the test blocks. […] The test was completed in 8 weeks.

A. niger and P. citrinum = assay: Visual mold growth rating on gypsum cuboids placed on inoculated Sabouraud's Dextrose Agar (Example 2); format: cell-based; conditions: for Visual evaluation Week 1 / Visual evaluation Week 2 / Visual evaluation Week 3 / Visual evaluation Week 4: 26° C., 70% relative humidity
Text: Gypsum cuboids (30×40×25 mm^3) were made with the addition of the following formulations: • Sodium dehydroacetic acid (Na-DHA): 2500 ppm and 5000 ppm. • Carboquat® 250T ^3: 2500 ppm and 5000 ppm. • Carboquat® 250T/DHA 10:4 (wt./wt.): 2500 ppm and 5000 ppm. • ^3 Carboquat® 250T is an essentially aqueous solution containing approx. 50% of a mixture of carbonate and bicarbonate of didecyldimethylammonium. Carboquat® 250T is available from Lonza Inc., Allendale N.J.
Glass containers with Sabouraud's Dextrose Agar (SDA) on the bottom were prepared. Freshly-made spore suspensions of A. niger and P. citrinum were spread on the surface of SDA. The gypsum cuboids were air-dried and then placed on the top of the inoculated SDA. The containers were covered by aluminum foil and placed in an incubator with pre-set temperature of 26° C. and relative humidity of 70%. The test was completed at 4 weeks. Visual observation of mold growth on the gypsum cuboids was recorded weekly using the same rating system as in Example 1.

SMILES	Visual evaluation Week 1 (mold/stain fungi)	Visual evaluation Week 2 (mold/stain fungi)	Visual evaluation Week 3 (mold/stain fungi)	Visual evaluation Week 4 (mold/stain fungi)	Visual evaluation Week 5 (mold/stain fungi)	Visual evaluation Week 6 (mold/stain fungi)	Visual evaluation Week 8 (mold/stain fungi)	Efficacy against mold/stain fungi (in words) (mold/stain fungi)	Visual evaluation Week 1 (A. niger and P. citrinum; 2500 ppm in gypsum cuboid)	Visual evaluation Week 2 (A. niger and P. citrinum; 2500 ppm in gypsum cuboid)	Visual evaluation Week 3 (A. niger and P. citrinum; 2500 ppm in gypsum cuboid)	Visual evaluation Week 4 (A. niger and P. citrinum; 2500 ppm in gypsum cuboid)	Mold growth on gypsum cuboids (in words) (A. niger and P. citrinum; 5000 ppm)	Visual evaluation Week 1 (A. niger and P. citrinum; 5000 ppm in gypsum cuboid)	Visual evaluation Week 2 (A. niger and P. citrinum; 5000 ppm in gypsum cuboid)	Visual evaluation Week 3 (A. niger and P. citrinum; 5000 ppm in gypsum cuboid)	Visual evaluation Week 4 (A. niger and P. citrinum; 5000 ppm in gypsum cuboid)
C/C=C/C=C/C(=O)[O-].[Na+] [Na-Sorbate]	2 (Medium mold growth (6-25% mold coverage))	4 (Severe mold growth (>50% mold coverage))	4 (Severe mold growth (>50% mold coverage))	4 (Severe mold growth (>50% mold coverage))	4 (Severe mold growth (>50% mold coverage))	4 (Severe mold growth (>50% mold coverage))	4 (Severe mold growth (>50% mold coverage))	no efficacy	–	–	–	–	–	–	–	–	–
CC(=O)c1c([O-])cc(C)oc1=O.[Na+] [Na-DHA, Sodium dehydroacetic acid]	0	0	0	0	1 (Slight mold growth (<5% mold coverage))	1 (Slight mold growth (<5% mold coverage))	2 (Medium mold growth (6-25% mold coverage))	strong efficacy	0	2 (Medium mold growth (6-25% mold coverage))	3 (Heavy mold growth (26-50% mold coverage))	3 (Heavy mold growth (26-50% mold coverage))	no mold growth	0	0	0	0
O=C([O-])c1ccccc1.[Na+] [Na-Benzoate]	2 (Medium mold growth (6-25% mold coverage))	4 (Severe mold growth (>50% mold coverage))	4 (Severe mold growth (>50% mold coverage))	4 (Severe mold growth (>50% mold coverage))	4 (Severe mold growth (>50% mold coverage))	4 (Severe mold growth (>50% mold coverage))	4 (Severe mold growth (>50% mold coverage))	no efficacy	–	–	–	–	–	–	–	–	–
